How the values were obtained:
[1] = test system: alternative complement pathway activity; assay: Complement alternative pathway (AH50) assay on clinical serum samples; type: in vivo, human; conditions: ASSURE trial, 26 weeks vs baseline
Method: (§1) The method can be used to determine the effect of compounds, including those in the present invention, on the activity of the classical and alternative complement system in clinical samples. […] Using the CH50 screening assay to detect the hemolysis of sheep erythrocytes sensitized by specific antibodies, the hemolytic activity of the complement system in serum samples from treated and untreated subjects was measured. Likewise, using specific conditions to activate only the alternative pathway (AH50), activity of the complement response was measured. The degree of complement activation was measured at baseline and terminally to determine if there were any changes in the function of the complement system following drug treatment (FIG. 7). Reduced function of the complement system constitutes a positive result.

[2] = test system: classical complement system hemolytic activity (sensitized sheep erythrocytes); assay: Total hemolytic complement (CH50) assay on clinical serum samples; type: in vivo, human; conditions: ASSURE trial, 26 weeks vs baseline
Method: as §1

C-reactive protein = assay: SOMAscan protein quantitation in clinical samples, ASSURE trial; type: in vivo, human; conditions: 200 mg/day, week 26 vs. baseline
Method: (§2) In this example, plasma samples from human subjects treated with placebo or RVX000222 are analyzed by the SOMAscan™ assay (SomaLogic). The method can be used to determine the effect of compounds, including those in the present invention, on the abundance of proteins, including complement components, in clinical samples. […] Using the SOMAscan™ technology, each sample is analyzed for the relative presence and amount of 1,310 different proteins. The changes in values for each protein analyte are calculated versus the baseline measure, and statistically significant (p<0.05) values are reported (Table 10). Downregulation of expression of components of the complement cascade will result in reduced activity of the pathway and thus will constitute a positive result.

C5a anaphylatoxin = assay: as above; type: in vivo, human; conditions: 200 mg/day, week 26 vs. baseline
Method: as §2

[3] = test system: Complement C1s subcomponent; assay: as above; type: in vivo, human; conditions: 200 mg/day, week 26 vs. baseline
Method: as §2

Complement C2 = assay: as above; type: in vivo, human; conditions: 200 mg/day, week 26 vs. baseline
Method: as §2

Complement C3b = assay: as above; type: in vivo, human; conditions: 200 mg/day, week 26 vs. baseline
Method: as §2

[4] = test system: Complement C5b-C6 complex; assay: as above; type: in vivo, human; conditions: 200 mg/day, week 26 vs. baseline
Method: as §2

Complement C5 = assay: as above; type: in vivo, human; conditions: 200 mg/day, week 26 vs. baseline
Method: as §2

Complement component C6 = assay: as above; type: in vivo, human; conditions: 200 mg/day, week 26 vs. baseline
Method: as §2

Complement component C8 = assay: as above; type: in vivo, human; conditions: 200 mg/day, week 26 vs. baseline
Method: as §2

Complement component C9 = assay: as above; type: in vivo, human; conditions: 200 mg/day, week 26 vs. baseline
Method: as §2

[5] = test system: Complement decay-accelerating factor; assay: as above; type: in vivo, human; conditions: 200 mg/day, week 26 vs. baseline
Method: as §2

Complement factor B = assay: as above; type: in vivo, human; conditions: 200 mg/day, week 26 vs. baseline
Method: as §2

Complement factor H = assay: as above; type: in vivo, human; conditions: 200 mg/day, week 26 vs. baseline
Method: as §2

Complement factor I = assay: as above; type: in vivo, human; conditions: 200 mg/day, week 26 vs. baseline
Method: as §2

[6] = test system: Mannan-binding lectin serine protease 1; assay: as above; type: in vivo, human; conditions: 200 mg/day, week 26 vs. baseline
Method: as §2

[7] = test system: Mannose-binding protein C; assay: as above; type: in vivo, human; conditions: 200 mg/day, week 26 vs. baseline
Method: as §2

MBL2 mRNA = assay: Complement mRNA expression in primary human hepatocytes; type: cell-based; conditions: 0.3 uM, maximum at 24 h, single donor
Method: (§3) Huh-7 and HepG2 cells are liver-derived cell lines and are models for what can occur in the liver. Huh-7 cells (JCRB Cell Bank) were introduced to 96-well plates (^˜2.5×10^5 per well) in 100 μL DMEM containing 10% (v/v) FBS, 100 U/mL penicillin, 100 ug/mL streptomycin and 5 ug/mL plasmocin (all reagents from Gibco, except for the former, which was obtained from Invivogen). After 24 h, Huh-7 cells were treated with compounds in the same media formulation used for plating, and supplemented with 0.1% DMSO for the amount of time indicated in tables 2, 3, and 4. For select experiments, 24 h post-plating, cells were treated with cytokines and the compound of interest simultaneously, for a total treatment time of 48 h. Alternatively, 24 h after plating, cells were pre-treated with cytokines for 24 h before adding the compound of interest for 48 h. HepG2 cells (ATCC) were cultured in 96-well plates (^˜2.5×10^5 per well) in MEM containing 10% FBS, 1× non-essential amino acids, 1 mM sodium pyruvate, 2 mM L-glutamine, 100 U/mL penicillin, 100 ug/mL streptomycin and 5 ug/mL plasmocin. Serum amount was reduced to 0.5% for treatments with compound or cytokines. Timing of treatment of HepG2 cells with compounds and cytokines was as described for Huh-7 cells. Primary human hepatocytes (CellzDirect/Life Technologies) were plated in collagen coated 96-well plates at 70 000 cells/well, then overlaid with Matrigel™ as recommended by the supplier. Cells were treated with compounds of interest and/or cytokines for the indicated time points in the recommended media supplemented with 0.1% DMSO and 10% FBS (v/v). Cells were harvested by mRNA Catcher PLUS Kit (Life Technologies) followed by real-time PCR using the RNA UltraSense One-Step qRT-PCR System. The level of the mRNA of interest was measured by TaqMan real-time PCR relative to the endogenous control cyclophilin A in the same sample.

complement C1S mRNA = assay: as above; type: cell-based; conditions: 0.3 uM, maximum at 72 h, single donor
Method: as §3

complement C2 mRNA = assay: as above; type: cell-based; conditions: 0.3 uM, maximum at 72 h, single donor
Method: as §3

complement C3 mRNA = assay: as above; type: cell-based; conditions: 0.3 uM, maximum at 24 h, single donor
Method: as §3

complement C4 mRNA = assay: as above; type: cell-based; conditions: 0.3 uM, maximum at 24 h, single donor
Method: as §3

complement C5 mRNA = assay: as above; type: cell-based; conditions: 0.3 uM, maximum at 24 h, single donor
Method: as §3

complement C9 mRNA = assay: as above; type: cell-based; conditions: 0.3 uM, maximum at 48 h, single donor
Method: as §3

COc1cc(OC)c2c(=O)[nH]c(-c3cc(C)c(OCCO)c(C)c3)nc2c1 [RVX000222, 2-(4-(2-hydroxyethoxy)-3,5-dimethylphenyl)-5,7-dimethoxyquinazolin-4(3H)-one]
complement activity in clinical samples, AHSO assay (FIG. 7A) [1]: reduces complement activity
complement activity in clinical samples, CHSO assay (FIG. 7B) [2]: reduces complement activity
C-reactive protein (CRP) % change vs. baseline (C-reactive protein): −43.6%
C5a anaphylatoxin (C5) % change vs. baseline (C5a anaphylatoxin): −28.7%
Complement C1s subcomponent (C1S) % change vs. baseline [3]: −6.1%
Complement C2 (C2) % change vs. baseline (Complement C2): −6.7%
Complement C3b (C3) % change vs. baseline (Complement C3b): −52.7%
Complement C5b-C6 complex (C5 C6) % change vs. baseline [4]: −12.0%
Complement C5 (C5) % change vs. baseline (Complement C5): −11.7%
Complement component C6 (C6) % change vs. baseline (Complement component C6): −14.3%
Complement component C8 (C8) % change vs. baseline (Complement component C8): −10.1%
Complement component C9 (C9) % change vs. baseline (Complement component C9): −18.3%
Complement decay-accelerating factor (CD55) % change vs. baseline [5]: −4.0%
Complement factor B (CFB) % change vs. baseline (Complement factor B): −6.8%
Complement factor H (CFH) % change vs. baseline (Complement factor H): −5.6%
Complement factor I (CFI) % change vs. baseline (Complement factor I): −6.4%
Mannan-binding lectin serine protease 1 (MASP1) % change vs. baseline [6]: 4.8%
Mannose-binding protein C (MBL2) % change vs. baseline [7]: −14.6%

Cc1sc2c(c1C)C(c1ccc(Cl)cc1)=N[C@@H](CC(=O)OC(C)(C)C)c1nnc(C)n1-2 [JQ1, (S)-tert-butyl 2-(4-(4-chlorophenyl)-2,3,9-trimethyl-6H-thieno[3,2-f][1,2,4]triazolo[4,3-a][1,4]diazepin-6-yl)acetate, reference compound]
MBL2 percent maximal reduction in gene expression (MBL2 mRNA): 93% (24 h)
C1S percent maximal reduction in gene expression (complement C1S mRNA): 22% (72 h)
C2 percent maximal reduction in gene expression (complement C2 mRNA): 29% (72 h)
C3 percent maximal reduction in gene expression (complement C3 mRNA): 54% (24 h)
C4 percent maximal reduction in gene expression (complement C4 mRNA): 31% (24 h)
C5 percent maximal reduction in gene expression (complement C5 mRNA): 67% (24 h)
C9 percent maximal reduction in gene expression (complement C9 mRNA): 72% (48 h)
